In ChEMBL document CHEMBL1782005, “Turnagainolides A and B, cyclic depsipeptides produced in culture by a Bacillus sp.: isolation, structure elucidation, and synthesis” (J Nat Prod, 2011):
Active and inactive are the calls of the source. The rule behind the calls is not given here.

Molecular target: T1, Phosphatidylinositol 3,4,5-trisphosphate 5-phosphatase 1 (Homo sapiens) (UniProt Q92835)
T1 sequence (whole entry): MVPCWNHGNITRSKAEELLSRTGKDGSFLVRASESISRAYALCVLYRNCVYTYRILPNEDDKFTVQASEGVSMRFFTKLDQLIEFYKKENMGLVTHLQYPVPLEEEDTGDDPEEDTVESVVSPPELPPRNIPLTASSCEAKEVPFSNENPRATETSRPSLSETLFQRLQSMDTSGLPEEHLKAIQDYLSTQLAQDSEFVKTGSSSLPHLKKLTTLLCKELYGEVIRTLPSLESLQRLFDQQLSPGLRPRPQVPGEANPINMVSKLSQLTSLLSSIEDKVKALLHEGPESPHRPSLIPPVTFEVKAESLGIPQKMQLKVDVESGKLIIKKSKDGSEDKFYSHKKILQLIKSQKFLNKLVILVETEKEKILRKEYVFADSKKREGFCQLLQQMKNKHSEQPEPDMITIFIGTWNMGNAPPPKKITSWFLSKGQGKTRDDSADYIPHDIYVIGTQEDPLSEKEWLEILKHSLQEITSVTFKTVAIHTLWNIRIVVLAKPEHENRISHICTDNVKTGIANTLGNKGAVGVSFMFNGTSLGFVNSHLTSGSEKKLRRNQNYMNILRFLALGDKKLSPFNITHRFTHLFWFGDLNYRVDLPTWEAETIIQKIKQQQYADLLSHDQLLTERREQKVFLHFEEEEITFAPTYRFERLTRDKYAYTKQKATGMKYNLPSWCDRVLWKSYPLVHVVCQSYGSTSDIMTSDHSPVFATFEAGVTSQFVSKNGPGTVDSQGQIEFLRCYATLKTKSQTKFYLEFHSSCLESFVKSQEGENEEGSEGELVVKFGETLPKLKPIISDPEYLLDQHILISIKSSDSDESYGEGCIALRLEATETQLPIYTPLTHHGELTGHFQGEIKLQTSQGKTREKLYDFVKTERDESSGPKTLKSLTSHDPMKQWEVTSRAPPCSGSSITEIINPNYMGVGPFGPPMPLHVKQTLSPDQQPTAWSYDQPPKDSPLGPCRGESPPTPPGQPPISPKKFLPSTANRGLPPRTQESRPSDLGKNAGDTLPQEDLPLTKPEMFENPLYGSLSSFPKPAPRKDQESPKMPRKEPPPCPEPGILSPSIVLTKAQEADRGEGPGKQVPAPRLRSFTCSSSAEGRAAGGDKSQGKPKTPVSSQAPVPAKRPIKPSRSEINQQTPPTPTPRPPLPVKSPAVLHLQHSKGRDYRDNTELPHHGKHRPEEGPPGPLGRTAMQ
Experiment: Activation of SHIP1 using IP4 as substrate at 10 uM preincubated for 10 mins before addition of IP4 measured after 10 mins

Row | SMILES | Activity
1 | Cc1cc(O)cc2c1[C@]1(C)CC[C@H]3C(C)(C)CCC[C@]3(C)[C@H]1C2 | Active
2 | CC[C@H](C)[C@@H]1NC(=O)[C@@H](C)NC(=O)[C@H](C(C)C)NC(=O)C[C@@H](/C=C/c2ccccc2)OC(=O)[C@H](C(C)C)NC1=O | Active
3 | CC[C@H](C)[C@@H]1NC(=O)[C@@H](C)NC(=O)[C@H](C(C)C)NC(=O)C[C@H](/C=C/c2ccccc2)OC(=O)[C@H](C(C)C)NC1=O | inactive
